{"source": "patent US12612380B2", "about": "“Non-lysosomal glucosylceramidase inhibitors and uses thereof” (ALECTOS THERAPEUTICS INC., priority 2019, dated 2026)", "data": [{"target": "T1, GBA2 (Homo sapiens, UniProt Q9HCG7)", "T1 sequence (Q9HCG7 1-927)": "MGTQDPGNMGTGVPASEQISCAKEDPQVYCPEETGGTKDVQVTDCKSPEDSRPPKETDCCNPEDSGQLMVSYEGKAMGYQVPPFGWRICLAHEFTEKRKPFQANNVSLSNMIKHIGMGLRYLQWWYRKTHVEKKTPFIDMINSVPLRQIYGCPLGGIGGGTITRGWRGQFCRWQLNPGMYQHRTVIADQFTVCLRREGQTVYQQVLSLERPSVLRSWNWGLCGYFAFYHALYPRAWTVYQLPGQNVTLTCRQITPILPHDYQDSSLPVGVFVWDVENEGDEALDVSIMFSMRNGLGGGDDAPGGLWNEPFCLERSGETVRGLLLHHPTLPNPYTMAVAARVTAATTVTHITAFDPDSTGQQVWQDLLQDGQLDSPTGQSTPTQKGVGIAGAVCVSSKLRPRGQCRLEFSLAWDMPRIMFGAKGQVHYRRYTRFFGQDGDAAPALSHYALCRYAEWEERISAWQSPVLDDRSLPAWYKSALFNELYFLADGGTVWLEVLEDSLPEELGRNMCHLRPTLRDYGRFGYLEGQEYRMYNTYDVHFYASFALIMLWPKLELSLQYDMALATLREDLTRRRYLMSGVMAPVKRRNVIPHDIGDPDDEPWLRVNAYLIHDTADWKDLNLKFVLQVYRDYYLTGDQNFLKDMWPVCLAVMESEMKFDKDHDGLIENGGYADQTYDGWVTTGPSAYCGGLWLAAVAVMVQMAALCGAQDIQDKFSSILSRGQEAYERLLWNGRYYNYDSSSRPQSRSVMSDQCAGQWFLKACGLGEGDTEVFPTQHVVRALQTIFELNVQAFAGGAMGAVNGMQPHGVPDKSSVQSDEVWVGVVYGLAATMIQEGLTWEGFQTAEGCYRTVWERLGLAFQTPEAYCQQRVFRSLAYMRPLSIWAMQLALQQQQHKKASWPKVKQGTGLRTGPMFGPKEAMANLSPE", "assay": "Binding specificity (selectivity) for GBA2 over other enzymes", "assay_type": "biochemical", "conditions": "compared to a suitable reference compound, e.g. NB-DNJ (miglustat) or AMP-DNM", "text": "In some embodiments, one or more of the compounds according to the invention may specifically bind a GBA2. In alternative embodiments, one or more of the compounds according to the invention may specifically bind the active site of a GBA2. […] In alternative embodiments, one or more of the compounds according to the invention may specifically bind the human non-lysosomal glucosylceramidase (GBA2) over the human lysosomal glucosylceramidase (GCase) and/or the human cytosolic glucosylceramidase (GBA3). In alternative embodiments, one or more of the compounds according to the invention may specifically bind the human non-lysosomal glucosylceramidase (GBA2) over the human glucosylceramide synthase (GCS). In alternative embodiments, one or more of the compounds according to the invention may specifically bind the human non-lysosomal glucosylceramidase (GBA2) over an intestinal alpha-glucosidase, where the intestinal alpha-glucosidase may be a sucrase-isomaltase or a maltase-glucoamylase.", "values": [{"molecule": "C[C@@H]1[C@@H](O)[C@H](O)[C@@H](O)CN1C[C@H]1CC[C@@H](C(C)(C)C)CC1", "note": "[Example 9, (2R,3R,4R,5S)-1-(((1s,4S)-4-(tert-butyl)cyclohexyl)methyl)-2-methylpiperidine-3,4,5-triol]", "binding specificity (IC50 or Ki of other molecule / GBA2)": "enhanced binding specificity"}, {"molecule": "C[C@@H]1[C@@H](O)[C@H](O)[C@@H](O)CN1C[C@H]1CC[C@@H](C(F)(F)F)CC1", "note": "[Example 11, (2R,3R,4R,5S)-2-methyl-1-(((1s,4S)-4-(trifluoromethyl)cyclohexyl)methyl)piperidine-3,4,5-triol]", "binding specificity (IC50 or Ki of other molecule / GBA2)": "enhanced binding specificity"}]}, {"target": "T1, GBA2", "assay": "Determination of IC50 values for inhibition of GBA2 in cell lysate", "assay_type": "biochemical", "parameters": "host or cells: HEK293T (lentiviral transduction, puromycin selection); used as cellular homogenate", "conditions": "not given", "method_in_brief": "(§1)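 Fluorogenic 4-MU-β-glucoside (250 μM) turnover over 20 min at 37 °C, pH 5.5, measured after NaOH/glycine stop (ex 365, em 450 nm). Enzyme source: lysate (0.083 mg/mL) of lentivirally transduced GBA2-HEK293T, GCase blocked by 20 μM azaspiro-octanediol; compound preincubated 5 min; IC50 = 50% inhibition concentration.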", "units": {"IC50": "nM"}, "values": [{"molecule": "O[C@H]1[C@H](O)[C@@H](O)CN(CCc2ccccc2)[C@@H]1CF", "note": "[Example 148, (2S,3R,4R,5S)-2-(fluoromethyl)-1-phenethylpiperidine-3,4,5-triol]", "IC50": "100 to 1000"}, {"molecule": "O[C@H]1[C@H](O)[C@@H](O)CN(CCc2ccccc2F)[C@@H]1CF", "note": "[Example 149, (2S,3R,4R,5S)-2-(fluoromethyl)-1-(2-fluorophenethyl)piperidine-3,4,5-triol]", "IC50": "100 to 1000"}, {"molecule": "CC(C)c1cc(F)c(CCN2C[C@H](O)[C@@H](O)[C@H](O)[C@H]2CF)c(F)c1", "note": "[Example 150, (2S,3R,4R,5S)-1-(2,6-difluoro-4-isopropylphenethyl)-2-(fluoromethyl)piperidine-3,4,5-triol]", "IC50": "< 100"}, {"molecule": "O[C@H]1[C@H](O)[C@@H](O)CN(CCc2ccc3c(c2)OCCO3)[C@@H]1CF", "note": "[Example 153, (2S,3R,4R,5S)-1-(2-(2,3-dihydrobenzo[b][1,4]dioxin-6-yl)ethyl)-2-(fluoromethyl)piperidine-3,4,5-triol]", "IC50": "< 100"}, {"molecule": "C[C@H]1[C@@H](O)[C@H](O)[C@@H](O)CN1CCc1ccccc1F", "note": "[Example 157, (2S,3R,4R,5S)-1-(2-fluorophenethyl)-2-methylpiperidine-3,4,5-triol]", "IC50": "1000 to 25000"}, {"molecule": "CCCCOc1cc(F)c(CCN2C[C@H](O)[C@@H](O)[C@H](O)[C@@H]2C)c(F)c1", "note": "[Example 158, (2S,3R,4R,5S)-1-(4-butoxy-2,6-difluorophenethyl)-2-methylpiperidine-3,4,5-triol]", "IC50": "100 to 1000"}, {"molecule": "O[C@H]1[C@H](O)[C@H](CF)N(CCc2ccccc2F)C[C@@H]1O", "note": "[Example 159, (2R,3R,4R,5S)-2-(fluoromethyl)-1-(2-fluorophenethyl)piperidine-3,4,5-triol]", "IC50": "1000 to 25000"}, {"molecule": "CCCCOc1cc(F)c(CCN2C[C@H](O)[C@@H](O)[C@H](O)[C@@H]2CF)c(F)c1", "note": "[Example 160, (2R,3R,4R,5S)-1-(4-butoxy-2,6-difluorophenethyl)-2-(fluoromethyl)piperidine-3,4,5-triol]", "IC50": "100 to 1000"}]}, {"target": "T1, GBA2", "assay": "Determination of IC50 values for inhibition of GBA2 in cell lysate", "assay_type": "biochemical", "parameters": "host or cells: HEK293T (lentiviral transduction, puromycin selection); used as cellular homogenate", "conditions": "cellular homogenate of HEK293T cells overexpressing human GBA2, 250 μM 4-methylumbelliferone-β-D glucopyranoside, pH 5.5, 37° C., GCase inhibitor present; read-out: GBA2 IC50", "method_in_brief": "as §1", "units": {"IC50": "nM"}, "values": [{"molecule": "C[C@@H]1[C@@H](O)[C@H](O)[C@@H](O)CN1C[C@H]1CC[C@@H](C(C)(C)C)CC1", "note": "[Example 9, (2R,3R,4R,5S)-1-(((1s,4S)-4-(tert-butyl)cyclohexyl)methyl)-2-methylpiperidine-3,4,5-triol]", "IC50": "< 100"}, {"molecule": "C[C@@H]1[C@@H](O)[C@H](O)[C@@H](O)CN1C[C@H]1CC[C@@H](C(F)(F)F)CC1", "note": "[Example 11, (2R,3R,4R,5S)-2-methyl-1-(((1s,4S)-4-(trifluoromethyl)cyclohexyl)methyl)piperidine-3,4,5-triol]", "IC50": "< 100"}, {"molecule": "C[C@@H]1[C@@H](O)[C@H](O)[C@@H](O)CN1C[C@H]1CCN(c2cncc(C(F)(F)F)c2)C1", "note": "[Example 125, (2R,3R,4R,5S)-2-methyl-1-(((R)-1-(5-(trifluoromethyl)pyridin-3-yl)pyrrolidin-3-yl)methyl)piperidine-3,4,5-triol]", "IC50": "< 100"}, {"molecule": "C[C@@H]1[C@@H](O)[C@H](O)[C@@H](O)CN1C[C@H]1CCN(c2cccnc2C(F)(F)F)C1", "note": "[Example 126, (2R,3R,4R,5S)-2-methyl-1-(((R)-1-(2-(trifluoromethyl)pyridin-3-yl)pyrrolidin-3-yl)methyl)piperidine-3,4,5-triol]", "IC50": "< 100"}, {"molecule": "C[C@@H]1[C@@H](O)[C@H](O)[C@@H](O)CN1C[C@H]1CCN(c2cncnc2C(F)(F)F)C1", "note": "[Example 127, (2R,3R,4R,5S)-2-methyl-1-(((R)-1-(4-(trifluoromethyl)pyrimidin-5-yl)pyrrolidin-3-yl)methyl)piperidine-3,4,5-triol]", "IC50": "< 100"}, {"molecule": "C[C@@H]1[C@@H](O)[C@H](O)[C@@H](O)CN1C[C@H]1CCN(c2ccsc2)C1", "note": "[Example 128, (2R,3R,4R,5S)-2-methyl-1-(((R)-1-(thiophen-3-yl)pyrrolidin-3-yl)methyl)piperidine-3,4,5-triol]", "IC50": "< 100"}, {"molecule": "C[C@@H]1[C@@H](O)[C@H](O)[C@@H](O)CN1C[C@H]1CCN(C(=O)c2ccc(C(F)(F)F)cc2)C1", "note": "[Example 130, (4-(trifluoromethyl)phenyl)((R)-3-(((2R,3R,4R,5S)-3,4,5-trihydroxy-2-methylpiperidin-1-yl)methyl)pyrrolidin-1-yl)methanone]", "IC50": "< 100"}, {"molecule": "C[C@@H]1[C@@H](O)[C@H](O)[C@@H](O)CN1C[C@@H]1CCN(c2ncccc2C(F)(F)F)C1", "note": "[Example 132, (2R,3R,4R,5S)-2-methyl-1-(((S)-1-(3-(trifluoromethyl)pyridin-2-yl)pyrrolidin-3-yl)methyl)piperidine-3,4,5-triol]", "IC50": "< 100"}, {"molecule": "C[C@@H]1[C@@H](O)[C@H](O)[C@@H](O)CN1C[C@@H]1CCN(c2cnccc2C(F)(F)F)C1", "note": "[Example 133, (2R,3R,4R,5S)-2-methyl-1-(((S)-1-(4-(trifluoromethyl)pyridin-3-yl)pyrrolidin-3-yl)methyl)piperidine-3,4,5-triol]", "IC50": "< 100"}, {"molecule": "C[C@@H]1[C@@H](O)[C@H](O)[C@@H](O)CN1C[C@@H]1CCN(c2cncnc2C(F)(F)F)C1", "note": "[Example 134, (2R,3R,4R,5S)-2-methyl-1-(((S)-1-(4-(trifluoromethyl)pyrimidin-5-yl)pyrrolidin-3-yl)methyl)piperidine-3,4,5-triol]", "IC50": "< 100"}, {"molecule": "C[C@@H]1[C@@H](O)[C@H](O)[C@@H](O)CN1C[C@@H]1CCN(c2nc(C(F)(F)F)cs2)C1", "note": "[Example 135, (2R,3R,4R,5S)-2-methyl-1-(((S)-1-(4-(trifluoromethyl)thiazol-2-yl)pyrrolidin-3-yl)methyl)piperidine-3,4,5-triol]", "IC50": "< 100"}, {"molecule": "C[C@@H]1[C@@H](O)[C@H](O)[C@@H](O)CN1C[C@@H]1CCCN(c2cccc(C(F)(F)F)n2)C1", "note": "[Example 143, (2R,3R,4R,5S)-2-methyl-1-(((S)-1-(6-(trifluoromethyl)pyridin-2-yl)piperidin-3-yl)methyl)piperidine-3,4,5-triol]", "IC50": "< 100"}, {"molecule": "C[C@@H]1[C@@H](O)[C@H](O)[C@@H](O)CN1C[C@@H]1CCCN(c2nc(C(F)(F)F)cs2)C1", "note": "[Example 144, (2R,3R,4R,5S)-2-methyl-1-(((S)-1-(4-(trifluoromethyl)thiazol-2-yl)piperidin-3-yl)methyl)piperidine-3,4,5-triol]", "IC50": "100 to 1000"}, {"molecule": "CC(C)C1CCC(CN2C[C@H](O)[C@@H](O)[C@H](O)[C@H]2CF)CC1", "note": "(stereo partly drawn) [Example 145, (2S,3R,4R,5S)-2-(fluoromethyl)-1-((4-isopropylcyclohexyl)methyl)piperidine-3,4,5-triol]", "IC50": "< 100"}, {"molecule": "CC(C)(C)C1CCC(CN2C[C@H](O)[C@@H](O)[C@H](O)[C@H]2CF)CC1", "note": "(stereo partly drawn) [Example 146, (2S,3R,4R,5S)-1-((4-(tert-butyl)cyclohexyl)methyl)-2-(fluoromethyl)piperidine-3,4,5-triol]", "IC50": "< 100"}, {"molecule": "O[C@H]1[C@H](O)[C@@H](O)CN(CC2CCN(c3ccccc3)CC2)[C@@H]1CF", "note": "[Example 154, (2S,3R,4R,5S)-2-(fluoromethyl)-1-((1-phenylpiperidin-4-yl)methyl)piperidine-3,4,5-triol]", "IC50": "< 100"}, {"molecule": "O[C@H]1[C@H](O)[C@@H](O)CN(CC2CCN(c3ccc(C(F)(F)F)cc3)CC2)[C@@H]1CF", "note": "[Example 155, (2S,3R,4R,5S)-2-(fluoromethyl)-1-((1-(4-(trifluoromethyl)phenyl)piperidin-4-yl)methyl)piperidine-3,4,5-triol]", "IC50": "< 100"}, {"molecule": "O[C@H]1[C@H](O)[C@@H](O)CN(CCc2ccccc2)[C@@H]1C(F)F", "note": "[Example 156, (2S,3R,4R,5S)-2-(difluoromethyl)-1-phenethylpiperidine-3,4,5-triol]", "IC50": "1000 to 25000"}]}]}
